“And” between values parts separate entries of the source, which are not always exact repeats. Equal entries are not always repeated. Inconclusive results and toxic doses are left out. Cut-off read from the data, not from the text of the source: active = T/C of 150% or more; inactive = T/C below 125%.
Tested on: L1210 leukemia ip in BDF1 mice, survival T/C
Experiment: NCI In Vivo Anticancer Drug Screen. Data for tumor model L1210 Leukemia (intraperitoneal) in B6D2F1 (BDF1) mice
Details: endpoint: mean survival time, higher = longer survival
In short: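 Tumor was transplanted into mice, which were then dosed with test compound or vehicle alone. Survival was recorded for each group, and the treated figure was expressed relative to the control figure.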

[1] = dose: 100.0 mg/kg/injection, schedule: Q01DX009 (ip), vehicle: saline
[2] = dose: 100.0 mg/kg/injection, schedule: Q04DX003 (ip), vehicle: saline
[3] = dose: 200.0 mg/kg/injection, schedule: Q01DX009 (ip), vehicle: saline
[4] = dose: 200.0 mg/kg/injection, schedule: Q04DX003 (ip), vehicle: saline
[5] = dose: 100.0 mg/kg/injection, schedule: Q04DX003 (ip), vehicle: saline with Tween-80
[6] = dose: 200.0 mg/kg/injection, schedule: Q04DX003 (ip), vehicle: saline with Tween-80
[7] = dose: 100.0 mg/kg/injection, schedule: Q01DX009 (ip), vehicle: saline with Tween-80
[8] = dose: 200.0 mg/kg/injection, schedule: Q01DX009 (ip), vehicle: saline with Tween-80
[9] = dose: 400.0 mg/kg/injection, schedule: Q01DX009 (ip), vehicle: saline with Tween-80
[10] = dose: 100.0 mg/kg/injection, schedule: Q01DX001 (ip), vehicle: Klucel (hydroxypropylcellulose) (HPC)
[11] = dose: 200.0 mg/kg/injection, schedule: Q01DX001 (ip), vehicle: Klucel (hydroxypropylcellulose) (HPC)
[12] = dose: 400.0 mg/kg/injection, schedule: Q01DX001 (ip), vehicle: Klucel (hydroxypropylcellulose) (HPC)
[13] = dose: 50.0 mg/kg/injection, schedule: Q01DX009 (ip), vehicle: saline with Tween-80
[14] = dose: 100.0 mg/kg/injection, schedule: Q01DX001 (ip), vehicle: saline with Tween-80
[15] = dose: 200.0 mg/kg/injection, schedule: Q01DX001 (ip), vehicle: saline with Tween-80
[16] = dose: 100.0 mg/kg/injection, schedule: Q01DX001 (ip), vehicle: saline
[17] = dose: 200.0 mg/kg/injection, schedule: Q01DX001 (ip), vehicle: saline
[18] = dose: 400.0 mg/kg/injection, schedule: Q01DX001 (ip), vehicle: saline
[19] = dose: 50.0 mg/kg/injection, schedule: Q04DX003 (ip), vehicle: saline
[20] = dose: 100.0 mg/kg/injection, schedule: Q04DX003 (ip), vehicle: Klucel (hydroxypropylcellulose) (HPC)
[21] = dose: 200.0 mg/kg/injection, schedule: Q04DX003 (ip), vehicle: Klucel (hydroxypropylcellulose) (HPC)
[22] = dose: 400.0 mg/kg/injection, schedule: Q04DX003 (ip), vehicle: Klucel (hydroxypropylcellulose) (HPC)

Measured: T/C

O=c1ccc([N+](=O)[O-])c[nH]1
inactive: [1] 97 % of control and 93 % of control | [2] 105 % of control | [3] 101 % of control and 100 % of control | [4] 96 % of control and 103 % of control | dose: 400.0 mg/kg/injection, schedule: Q01DX009 (ip), vehicle: saline 105 % of control and 95 % of control | dose: 400.0 mg/kg/injection, schedule: Q04DX003 (ip), vehicle: saline 94 % of control and 96 % of control

CCCCCCC(C)O[Si](C)OCC (stereo not given)
inactive: [5] 95 % of control | [6] 101 % of control | dose: 400.0 mg/kg/injection, schedule: Q04DX003 (ip), vehicle: saline with Tween-80 96 % of control

O=C1c2ccccc2C(=O)c2c(O)ccc(O)c21
inactive: dose: 50.0 mg/kg/injection, schedule: Q01DX009 (ip), vehicle: saline 94 % of control | [7] 106 % of control | [1] 102 % of control | [8] 101 % of control | [3] 102 % of control | [9] 101 % of control

Clc1ccc2c(OCCN3CC3)ccnc2c1
inactive: dose: 100.0 mg/kg/injection, schedule: Q01DX001 (ip), vehicle: carboxymethylcellulose (CMC) 102 % of control

O=C(Nc1cc(Cl)ccc1Cl)C(Cl)(Cl)Cl
inactive: [10] 97 % of control | [11] 103 % of control | [12] 93 % of control

Nc1ccnc2snnc12
inactive: [13] 96 % of control | dose: 50.0 mg/kg/injection, schedule: Q04DX003 (ip), vehicle: saline with Tween-80 93 % of control | [14] 111 % of control | [7] 90 % of control | [5] 102 % of control | [15] 98 % of control | [8] 95 % of control | [6] 107 % of control

O=[N+]([O-])c1ccc(N/N=C(/Cc2ccccc2)c2ccc(Cl)cc2)c([N+](=O)[O-])c1
inactive: [16] 107 % of control | [17] 86 % of control | [18] 98 % of control

C#CCOS(C)(=O)=O
inactive: dose: 10.0 mg/kg/injection, schedule: Q01DX009 (ip), vehicle: saline 108 % of control | dose: 10.0 mg/kg/injection, schedule: Q04DX002 (ip), vehicle: saline 107 % of control | dose: 20.0 mg/kg/injection, schedule: Q01DX009 (ip), vehicle: saline 124 % of control | dose: 20.0 mg/kg/injection, schedule: Q04DX002 (ip), vehicle: saline 103 % of control | dose: 40.0 mg/kg/injection, schedule: Q04DX002 (ip), vehicle: saline 103 % of control

O=c1ccc2c(c1)oc1cccc3c(=O)c4ccccc4c2c13
inactive: [13] 97 % of control | [7] 101 % of control

CCOC(=O)CCC(C)Br (stereo not given)
inactive: [13] 97 % of control | [7] 101 % of control | [8] 108 % of control

CC(C)CSC(SCC(C)C)C(OC(=O)c1ccccc1)C(OC(=O)c1ccccc1)C(COC(=O)c1ccccc1)OC(=O)c1ccccc1 (stereo not given)
inactive: dose: 100.0 mg/kg/injection, schedule: Q04DX002 (ip), vehicle: Klucel (hydroxypropylcellulose) (HPC) 103 % of control | dose: 200.0 mg/kg/injection, schedule: Q04DX002 (ip), vehicle: Klucel (hydroxypropylcellulose) (HPC) 94 % of control | dose: 400.0 mg/kg/injection, schedule: Q04DX002 (ip), vehicle: Klucel (hydroxypropylcellulose) (HPC) 87 % of control

O=C(C[n+]1cccc(CO)c1)c1ccccc1
inactive: dose: 12.5 mg/kg/injection, schedule: Q04DX003 (ip), vehicle: saline 102 % of control | dose: 25.0 mg/kg/injection, schedule: Q04DX003 (ip), vehicle: saline 103 % of control | [19] 100 % of control

C[n+]1ccc2cc(-c3ccccc3)c3ccccc3c2c1
inactive: dose: 1.56 mg/kg/injection, schedule: Q01DX009 (ip), vehicle: water 102 % of control | dose: 3.12 mg/kg/injection, schedule: Q01DX009 (ip), vehicle: water 104 % of control | dose: 6.25 mg/kg/injection, schedule: Q01DX009 (ip), vehicle: water 104 % of control | dose: 6.25 mg/kg/injection, schedule: Q04DX003 (ip), vehicle: water 98 % of control | dose: 12.5 mg/kg/injection, schedule: Q01DX009 (ip), vehicle: water 95 % of control | dose: 12.5 mg/kg/injection, schedule: Q04DX003 (ip), vehicle: water 103 % of control | dose: 25.0 mg/kg/injection, schedule: Q04DX003 (ip), vehicle: water 88 % of control

CC(=O)Nc1cc(C/C(N)=N/O)cc(NC(C)=O)c1
inactive: [7] 97 % of control | [8] 92 % of control | [9] 100 % of control

O=C1NC2(CCc3ccccc32)C(=O)O1 (stereo not given)
inactive: [20] 110 % of control | [21] 100 % of control | [22] 98 % of control

Ic1cccc(/C=N/Nc2nnc(N/N=C/c3cccc(I)c3)c3ccccc23)c1
inactive: dose: 50.0 mg/kg/injection, schedule: Q01DX001 (ip), vehicle: saline 102 % of control | [16] 102 % of control | [17] 102 % of control | [18] 108 % of control

CCCCCCCCCCCCCCCCC(O)CO (stereo not given)
inactive: dose: 100.0 mg/kg/injection, schedule: Q01DX009 (ip), vehicle: Klucel (hydroxypropylcellulose) (HPC) 96 % of control | dose: 200.0 mg/kg/injection, schedule: Q01DX009 (ip), vehicle: Klucel (hydroxypropylcellulose) (HPC) 102 % of control | dose: 400.0 mg/kg/injection, schedule: Q01DX009 (ip), vehicle: Klucel (hydroxypropylcellulose) (HPC) 96 % of control

CCOC(=O)N1CCc2nc3ccc(Cl)cc3cc21
inactive: [14] 95 % of control | [7] 104 % of control | [15] 93 % of control | [8] 110 % of control | dose: 400.0 mg/kg/injection, schedule: Q01DX001 (ip), vehicle: saline with Tween-80 98 % of control | [9] 106 % of control

COc1ccc(N(Cc2ccccc2)c2nn[nH]n2)cc1
inactive: [20] 93 % of control | [21] 90 % of control | [22] 97 % of control

NC(CSP(=O)(O)O)=NCC12CC3CC(CC(C3)C1)C2
inactive: dose: 10.0 mg/kg/injection, schedule: Q04DX002 (ip), vehicle: Klucel (hydroxypropylcellulose) (HPC) 102 % of control | dose: 20.0 mg/kg/injection, schedule: Q04DX002 (ip), vehicle: Klucel (hydroxypropylcellulose) (HPC) 109 % of control

CC1(C)OC2OC(C3COC(=O)O3)C(O)C2O1 (stereo not given)
inactive: [10] 114 % of control | [11] 101 % of control | [12] 96 % of control

CCOC1CC2(c3ccccc3)OC(=O)OC12c1ccccc1 (stereo not given)
inactive: dose: 25.0 mg/kg/injection, schedule: Q04DX002 (ip), vehicle: saline with Tween-80 115 % of control | dose: 50.0 mg/kg/injection, schedule: Q04DX002 (ip), vehicle: saline with Tween-80 101 % of control | dose: 100.0 mg/kg/injection, schedule: Q04DX002 (ip), vehicle: saline with Tween-80 115 % of control

CCCCCCC1=NC(C)(C)CO1
inactive: dose: 25.0 mg/kg/injection, schedule: Q01DX009 (ip), vehicle: saline with Tween-80 102 % of control | [13] 97 % of control | [19] 99 % of control | [7] 102 % of control | [2] 97 % of control | [8] 102 % of control | [4] 91 % of control
